Experimental data reported in patent publication US12077503B2, “Substituted cyclic amides and their use as herbicides” (FMC CORPORATION, priority 2015, dated 2024).

Key:
Experiment in all cases: Test C preemergence
Assay type in all cases: in vivo
[1] = system: barnyardgrass (Echinochloa crus-galli); conditions: for Plant response rating, Barnyardgrass: scale 0 to 100, 0 no effect, 100 complete control
Outline: (§1)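 Herbicidal effect, applied preemergence to sown seeds or postemergence to 1- to 4-leaf plants, was scored visually 13 to 15 d after application, 0 to 100 versus controls.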

[2] = system: oilseed rape (Brassica napus); conditions: for Plant response rating, Oilseed Rape: scale 0 to 100, 0 no effect, 100 complete control
Outline: as §1

[3] = system: velvetleaf (Abutilon theophrasti); conditions: for Plant response rating, Velvetleaf: scale 0 to 100, 0 no effect, 100 complete control
Outline: as §1

[4] = system: crabgrass, large (large crabgrass, Digitaria sanguinalis); conditions: for Plant response rating, Crabgrass, Large: scale 0 to 100, 0 no effect, 100 complete control
Outline: as §1

[5] = system: soybean (Glycine max); conditions: for Plant response rating, Soybean: scale 0 to 100, 0 no effect, 100 complete control
Outline: as §1

[6] = system: corn (Zea mays); conditions: for Plant response rating, Corn: scale 0 to 100, 0 no effect, 100 complete control
Outline: as §1

[7] = system: Galium (catchweed bedstraw, Galium aparine); conditions: for Plant response rating, Galium: scale 0 to 100, 0 no effect, 100 complete control
Outline: as §1

[8] = system: johnsongrass (Sorghum halepense); conditions: for Plant response rating, Johnsongrass: scale 0 to 100, 0 no effect, 100 complete control
Outline: as §1

[9] = system: lambsquarters (Chenopodium album); conditions: for Plant response rating, Lambsquarters: scale 0 to 100, 0 no effect, 100 complete control
Outline: as §1

[10] = system: wheat (winter wheat, Triticum aestivum); conditions: for Plant response rating, Wheat: scale 0 to 100, 0 no effect, 100 complete control
Outline: as §1

[11] = system: morningglory (Ipomoea coccinea); conditions: for Plant response rating, Morningglory: scale 0 to 100, 0 no effect, 100 complete control
Outline: as §1

[12] = system: ragweed (common ragweed, Ambrosia elatior); conditions: for Plant response rating, Ragweed: scale 0 to 100, 0 no effect, 100 complete control
Outline: as §1

[13] = system: waterhemp (common waterhemp, Amaranthus rudis); conditions: for Plant response rating, Waterhemp: scale 0 to 100, 0 no effect, 100 complete control
Outline: as §1

[14] = system: blackgrass (Alopecurus myosuroides); conditions: for Plant response rating, Blackgrass: scale 0 to 100, 0 no effect, 100 complete control
Outline: as §1

[15] = system: ryegrass, Italian (Italian ryegrass, Lolium multiflorum); conditions: for Plant response rating, Ryegrass, Italian: scale 0 to 100, 0 no effect, 100 complete control
Outline: as §1

[16] = system: foxtail, giant (giant foxtail, Setaria faberii); conditions: for Plant response rating, Foxtail, Giant: scale 0 to 100, 0 no effect, 100 complete control
Outline: as §1

[17] = system: pigweed (Amaranthus retroflexus); conditions: for Plant response rating, Pigweed: scale 0 to 100, 0 no effect, 100 complete control
Outline: as §1

[18] = system: nutsedge, yellow (yellow nutsedge, Cyperus esculentus); conditions: for Plant response rating, Nutsedge, Yellow: scale 0 to 100, 0 no effect, 100 complete control
Outline: as §1

[19] = 31 g ai/ha, 0 is no effect, 100 is complete control

Cc1ccc(C2CN(C)C(=O)C2C(=O)Nc2ccccc2C(F)(F)F)cc1 (stereo not drawn) [Compound 665]
85: Plant response rating (scale of 0 to 100), Barnyardgrass [1, 19] | Plant response rating, Oilseed Rape ([2]; 250 g ai/ha) | Plant response rating, Lambsquarters ([9]; 250 g ai/ha) | Plant response rating, Waterhemp ([13]; 250 g ai/ha)
98: Plant response rating, Barnyardgrass ([1]; 125 g ai/ha) | Plant response rating (scale of 0 to 100), Crabgrass, Large [4, 19] | Plant response rating, Foxtail, Giant ([16]; 125 g ai/ha) | Plant response rating, Foxtail, Giant ([16]; 250 g ai/ha)
90: Plant response rating (scale of 0 to 100), Galium [7, 19] | Plant response rating, Galium ([7]; 62 g ai/ha) | Plant response rating, Galium ([7]; 125 g ai/ha) | Plant response rating, Galium ([7]; 250 g ai/ha) | Plant response rating, Wheat ([10]; 250 g ai/ha) | Plant response rating, Blackgrass ([14]; 125 g ai/ha) | Plant response rating, Blackgrass ([14]; 250 g ai/ha) | Plant response rating (scale of 0 to 100), Foxtail, Giant [16, 19]
70: Plant response rating, Velvetleaf ([3]; 250 g ai/ha) | Plant response rating, Corn ([6]; 250 g ai/ha) | Plant response rating, Lambsquarters ([9]; 125 g ai/ha) | Plant response rating, Ragweed ([12]; 125 g ai/ha)
0: Plant response rating, Soybean ([5]; 125 g ai/ha) | Plant response rating (scale of 0 to 100), Corn [6, 19] | Plant response rating (scale of 0 to 100), Morningglory [11, 19] | Plant response rating (scale of 0 to 100), Pigweed [17, 19] | Plant response rating (scale of 0 to 100), Nutsedge, Yellow [18, 19] | Plant response rating, Nutsedge, Yellow ([18]; 62 g ai/ha) | Plant response rating, Nutsedge, Yellow ([18]; 125 g ai/ha) | Plant response rating, Nutsedge, Yellow ([18]; 250 g ai/ha)
35: Plant response rating, Velvetleaf ([3]; 62 g ai/ha)
55: Plant response rating, Ragweed ([12]; 62 g ai/ha)
65: Plant response rating, Waterhemp ([13]; 125 g ai/ha) | Plant response rating, Ryegrass, Italian ([15]; 125 g ai/ha)
60: Plant response rating, Oilseed Rape ([2]; 62 g ai/ha) | Plant response rating, Velvetleaf ([3]; 125 g ai/ha) | Plant response rating (scale of 0 to 100), Blackgrass [14, 19] | Plant response rating, Blackgrass ([14]; 62 g ai/ha) | Plant response rating, Ryegrass, Italian ([15]; 62 g ai/ha) | Plant response rating, Ryegrass, Italian ([15]; 250 g ai/ha) | Plant response rating, Pigweed ([17]; 62 g ai/ha)
95: Plant response rating, Barnyardgrass ([1]; 62 g ai/ha) | Plant response rating, Foxtail, Giant ([16]; 62 g ai/ha)
45: Plant response rating, Johnsongrass ([8]; 250 g ai/ha) | Plant response rating, Lambsquarters ([9]; 62 g ai/ha)
20: Plant response rating (scale of 0 to 100), Velvetleaf [3, 19] | Plant response rating, Morningglory ([11]; 125 g ai/ha)
10: Plant response rating (scale of 0 to 100), Soybean [5, 19] | Plant response rating, Soybean ([5]; 62 g ai/ha) | Plant response rating, Soybean ([5]; 250 g ai/ha) | Plant response rating, Corn ([6]; 62 g ai/ha) | Plant response rating (scale of 0 to 100), Johnsongrass [8, 19] | Plant response rating (scale of 0 to 100), Lambsquarters [9, 19] | Plant response rating, Morningglory ([11]; 250 g ai/ha)
15: Plant response rating (scale of 0 to 100), Wheat [10, 19] | Plant response rating, Morningglory ([11]; 62 g ai/ha)
80: Plant response rating, Oilseed Rape ([2]; 125 g ai/ha)
50: Plant response rating, Wheat ([10]; 62 g ai/ha) | Plant response rating, Wheat ([10]; 125 g ai/ha) | Plant response rating (scale of 0 to 100), Waterhemp [13, 19] | Plant response rating, Pigweed ([17]; 125 g ai/ha) | Plant response rating, Pigweed ([17]; 250 g ai/ha)
75: Plant response rating, Corn ([6]; 125 g ai/ha) | Plant response rating, Ragweed ([12]; 250 g ai/ha)
100: Plant response rating, Barnyardgrass ([1]; 250 g ai/ha) | Plant response rating, Crabgrass, Large ([4]; 62 g ai/ha) | Plant response rating, Crabgrass, Large ([4]; 125 g ai/ha) | Plant response rating, Crabgrass, Large ([4]; 250 g ai/ha)
40: Plant response rating (scale of 0 to 100), Ragweed [12, 19] | Plant response rating, Waterhemp ([13]; 62 g ai/ha)
25: Plant response rating, Johnsongrass ([8]; 62 g ai/ha) | Plant response rating, Johnsongrass ([8]; 125 g ai/ha)
30: Plant response rating (scale of 0 to 100), Oilseed Rape [2, 19] | Plant response rating (scale of 0 to 100), Ryegrass, Italian [15, 19]
